Tests used:
[1] = tested on: rabbit gastric lipase (RGL) followed by porcine pancreatic lipase (PPL); assay: Sequential in vitro digestion SGF followed by SIF, pH-stat; assay type: in vitro ADME
Experimental: (§1) The lipid emulsion (2 mL) containing 200 mg of fat was subjected to gastrointestinal in vitro lipolysis. […] For gastric digestion, the sample was incubated for 90 minutes with 8.5 mL of simulated gastric fluid (SGF), which consisted of 150 mM NaCl, 450 U/mL pepsin, 18 U/mL rabbit gastric lipase at 37° C. and a pH of 5.5.
The intestinal digestion step was performed in the pH stat where the pH was kept constant at 6.8 by addition of NaOH (0.05 M). […] The intestinal digestion step starts when the temperature reaches 37±0.5° C. The pH was adjusted to pH 6.8 and after incubation of two minutes at this pH and temperature, a pancreatin solution (5 mM tris, 150 mM NaCl at pH 6.8) was added. The final composition of the intestinal fluid was 10 mM CaCl2, 12 mM mixed bile salts, 0.75 mM phospholipid, 150 mM NaCl and 4 mM tris(hydroxymethyl)aminomethane buffer. The intestinal digestion step was carried out for 3 hours in a titration manager from Radiometer. During the intestinal phase of digestion, the kinetics of digestion were followed using a pH-stat (TIM856, Radiometer) technique and expressed as titratable acid (rather than fatty acid) that was calculated by the equation:
TA: Total titratable acid released, mmol; VNaOH: volume of NaOH used to titrate the released acid in 3 h, m L.
(§2) Since the digestion of dietary lipids involves lipases of both gastric and intestinal origin, lipid digestibility was assessed using two digestion models i) simulated intestinal fluid (SIF) with porcine pancreatic lipase (PPL) and ii) sequential digestion in simulated gastric fluid (SGF) with rabbit gastric lipase (RGL) followed by simulated intestinal fluid (SIF) with porcine pancreatic lipase (PPL).

[2] = target: T1, porcine pancreatic lipase (PPL) (Sus scrofa, UniProt P00591); assay: In vitro digestion in simulated intestinal fluid (SIF), pH-stat; assay type: in vitro ADME; conditions: SIF alone; 200 mg fat emulsion, pH 6.8, 37° C.
T1 construct: by porcine pancreatic lipase (from pancreatin); purchased Sigma-Aldrich P7585; host or cells: porcine pancreas extract (pancreatin)
T1 sequence (P00591 1-450): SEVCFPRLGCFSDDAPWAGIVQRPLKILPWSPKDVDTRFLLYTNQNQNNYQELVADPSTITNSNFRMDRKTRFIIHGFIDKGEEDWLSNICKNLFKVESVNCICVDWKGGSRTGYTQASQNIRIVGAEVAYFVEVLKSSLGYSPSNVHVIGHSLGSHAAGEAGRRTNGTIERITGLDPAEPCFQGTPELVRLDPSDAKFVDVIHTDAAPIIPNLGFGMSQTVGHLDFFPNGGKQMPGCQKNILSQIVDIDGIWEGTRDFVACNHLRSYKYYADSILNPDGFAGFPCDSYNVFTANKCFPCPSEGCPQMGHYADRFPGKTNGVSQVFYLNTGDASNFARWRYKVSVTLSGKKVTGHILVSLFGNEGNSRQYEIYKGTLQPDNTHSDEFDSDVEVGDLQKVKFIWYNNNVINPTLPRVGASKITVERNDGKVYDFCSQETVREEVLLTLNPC
T1 sequence (P02703 23-112 partner): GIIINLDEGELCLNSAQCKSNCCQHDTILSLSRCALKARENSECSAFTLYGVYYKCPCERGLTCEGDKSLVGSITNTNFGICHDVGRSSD
Experimental: as §1
The intestinal digestion step was performed in the pH stat where the pH was kept constant at 6.8 by addition of NaOH (0.05 M). […] The intestinal digestion step starts when the temperature reaches 37±0.5° C. The pH was adjusted to pH 6.8 and after incubation of two minutes at this pH and temperature, a pancreatin solution (5 mM tris, 150 mM NaCl at pH 6.8) was added. […] During the intestinal phase of digestion, the kinetics of digestion were followed using a pH-stat (TIM856, Radiometer) technique and expressed as titratable acid (rather than fatty acid) that was calculated by the equation: […]
as §2

CCCC(=O)OCC(COC(=O)CCC)OC(=O)CCC [tributyrin]
initial lipolysis rate in SIF compartment ([1]; SGF-SIF sequential digestion, 200 mg fat emulsion): 44.1 ± 8.8 µmol/min
hydrolysis in the stomach (gastric lipolysis), in words ([1]; gastric compartment of the model): extensive hydrolysis
lipolysis by gastric lipase ([1]; indicated by decreased total fatty acid release in SIF after RGL pre-exposure): ~60%
initial rate of lipolysis [2]: 223 ± 59 µmol/min

From patent US20220226272A1, “DIETARY BUTYRATE AND ITS USES” (SOCIETE DES PRODUITS NESTLE S.A., priority 2019, published 2022)
